Assay results: patent US12692261B2, “Substituted heterocyclic compounds and therapeutic uses thereof” (Bayer Aktiengesellschaft, priority 2020, dated 2026)
Where two headings read alike, the source gives them in different places.

Tests used:
Type in all cases: biochemical
[1] = biological target: T1, full-length human CSNK1A1 (Homo sapiens, UniProt P48729); experiment: CSNK1A1 Assay 2 (ADP-Glo, 1 μM ATP, substrate biotin-Ahx-KRRRAL-pS-VASLPGL); conditions: Table 3, read-out: CSNK1A1 Assay 2 IC50 [mol/l] (median)
T1 construct: N-terminal Glutathion-S-Transferase (GST) and full-length human CSNK1A1; purchased Life Technologies PV4174; host or cells: baculovirus infected insect cells
T1 sequence (P48729 whole entry): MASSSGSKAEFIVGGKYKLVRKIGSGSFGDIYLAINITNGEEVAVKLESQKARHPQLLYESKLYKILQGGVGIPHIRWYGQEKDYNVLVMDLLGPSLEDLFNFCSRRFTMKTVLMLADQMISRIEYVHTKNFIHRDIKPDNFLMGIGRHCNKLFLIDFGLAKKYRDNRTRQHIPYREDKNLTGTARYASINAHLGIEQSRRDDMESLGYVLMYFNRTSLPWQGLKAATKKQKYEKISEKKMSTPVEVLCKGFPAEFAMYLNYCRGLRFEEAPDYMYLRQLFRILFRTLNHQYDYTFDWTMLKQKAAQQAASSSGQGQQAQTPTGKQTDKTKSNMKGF
Method: CSNK1A1-inhibitory activity of compounds of the present invention in presence of 1 μM adenosine-tri-phosphate (ATP) was quantified employing the CSNK1A1 assay as described in the following paragraphs. In essence, the enzyme activity is measured by quantification of the adenosine-di-phosphate (ADP), which is generated as a co-product of the enzyme reaction, via the “ADP-Glo™ Kinase Assay” kit from the company Promega. This detection system works as follows: In a first step the ATP not consumed in the kinase reaction is quantitatively converted to cAMP employing an adenylate cyclase (“ADP-Glo-reagent”), then the adenylate cyclase is stopped and the ADP generated in the kinase reaction converted to ATP which generates in a luciferase-based reaction a glow-luminescence signal (“Kinase Detection Reagent”).
(§1) Recombinant fusion protein of N-terminal Glutathion-S-Transferase (GST) and full-length human CSNK1A1, expressed by baculovirus infected insect cells and purified via Glutathion affinity chromatography, was purchased from Life Technologies (product no. PV4174) and used as enzyme. As substrate for the kinase reaction the biotinylated peptide biotin-Ahx-KRRRAL-pS-VASLPGL (C-terminus in amide form) was used which can be purchased e.g. from the company Biosyntan (Berlin-Buch, Germany).
For the assay 50 nl of a 100 fold concentrated solution of the test compound in DMSO was pipetted into a white 1536-well microtiter plate (Greiner Bio-One, Frickenhausen, Germany), 2 μL of a solution of CSNK1A1 in aqueous assay buffer [50 mM HEPES pH 7.5, 10% (v/v) glycerol, 10 mM MgCl2, 50 mM NaCl, 1 mM dithiothreitol, 0.01% (w/v) bovine serum albumin, 0.01% (v/v) Triton X-100] were added and the mixture was incubated for 15 min at 22° C. to allow pre-binding of the test compounds to the enzyme before the start of the kinase reaction. […] The concentration of CSNK1A1 was adjusted depending of the activity of the enzyme lot and was chosen appropriate to have the assay in the linear range, a typical concentrations are about 0.0375 ng/μL. The reaction was stopped by the addition of 2.5 μL of “ADP-Glo-reagent” (1:1.5 fold diluted with water) and the resulting mixture was incubated at 22° C. for 1 h to convert the ATP not consumed in the kinase reaction completely […]. Subsequently 2.5 μL of the “kinase detection reagent” (1.2 fold more concentrated than recommended by the producer) were added, the resulting mixture was incubated at 22° C. for 1 h and then the luminescence measured with a suitable measurement instrument (e.g. Viewlux™ from Perkin-Elmer). The amount of emitted light was taken as a measure for the amount of ADP generated and thereby for the activity of the CSNK1A1.

[2] = biological target: T2, wild-type Epidermal Growth Factor Receptor (EGFR) (Homo sapiens, UniProt P00533); experiment: WT-EGFR Kinase Assay (TR-FRET, 2 mM ATP)
T2 construct: a fragment of human EGFR (amino acids R669 to A1210); made in house; host or cells: Sf9 insect cells
T2 sequence (P00533 669-1210): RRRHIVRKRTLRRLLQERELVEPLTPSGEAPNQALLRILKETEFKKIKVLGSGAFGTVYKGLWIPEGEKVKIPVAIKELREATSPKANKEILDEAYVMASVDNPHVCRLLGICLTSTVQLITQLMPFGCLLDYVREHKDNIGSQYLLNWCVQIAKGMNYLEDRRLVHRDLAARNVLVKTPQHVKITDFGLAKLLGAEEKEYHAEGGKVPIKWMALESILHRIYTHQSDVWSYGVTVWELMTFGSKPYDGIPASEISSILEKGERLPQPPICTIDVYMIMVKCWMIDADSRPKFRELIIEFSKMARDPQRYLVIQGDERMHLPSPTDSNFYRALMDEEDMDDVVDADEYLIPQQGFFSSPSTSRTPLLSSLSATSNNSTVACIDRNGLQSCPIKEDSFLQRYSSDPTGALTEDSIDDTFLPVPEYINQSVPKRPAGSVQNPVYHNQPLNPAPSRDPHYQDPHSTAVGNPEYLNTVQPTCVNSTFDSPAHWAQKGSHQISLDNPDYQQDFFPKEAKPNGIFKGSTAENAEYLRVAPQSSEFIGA
From the text: Inhibitory activity of compounds of the present invention against wild-type Epidermal Growth Factor Receptor (EGFR) was quantified employing the TR-FRET based EGFR assay as described in the following paragraphs.
Recombinant fusion protein of N-terminal Glutathion-S-Transferase (GST) and a fragment of human EGFR (amino acids R669 to A1210), expressed in Sf9 insect cells and purified via affinity chromatography using Glutathion Sepharose as described above, was used as kinase. As substrate for the kinase reaction the biotinylated peptide biotin-Ahx-[…] (C-terminus in amide form) was used which can be purchased e.g. form the company Biosynthan GmbH (Berlin-Buch, Germany).
For the assay 50 nl of a 100 fold concentrated solution of the test compound in DMSO was pipetted into either a black low volume 384 well microtiter plate or a black 1536 well microtiter plate (both Greiner Bio-One, Frickenhausen, Germany), 2 μL of a solution of EGFR in aqueous assay buffer [50 mM Hepes pH 7.0, 10 mM MgCl2, 1 mM dithiothreitol, 0.5 mM EGTA, 0.3 mM activated sodium ortho-vanadate, 0.005% (w/v) bovine serum albumin, 0.005% (v/v) Tween-20] were added and the mixture was incubated for 15 min at 22° C. to allow pre-binding of the test compounds to the enzyme before the start of the kinase reaction. […] The concentration of EGFR was adjusted depending of the activity of the enzyme lot and was chosen appropriate to have the assay in the linear range, typical concentration was 7.6 pg/μL. The reaction was stopped by the addition of 3 μL of a solution of HTRF detection reagents (83.3 nM streptavidine-XL665 [Cisbio Bioassays, Codolet, France] and 1.67 nM PT66-Tb-Cryptate, a terbium-cryptate labelled anti-phospho-tyrosine antibody from Cisbio Bioassays [instead of the PT66-Tb-cryptate PT66-Eu-Chelate from Perkin Elmer can also be used]) in an aqueous EDTA-solution (133.3 mM EDTA, 0.2% (w/v) bovine serum albumin in 50 mM HEPES pH 7.5).
The resulting mixture was incubated 1 h at 22° C. to allow the binding of the biotinylated phosphorylated peptide to the streptavidine-XL665 and the PT66-Tb-Cryptate. Subsequently the amount of phosphorylated substrate was evaluated by measurement of the resonance energy transfer from the PT66-Tb-Cryptate to the streptavidine-XL665. Therefore, the fluorescence emissions at 620 nm and 665 nm after excitation at 337 nm were measured in a HTRF reader, e.g. a Pherastar (BMG Labtechnologies, Offenburg, Germany) or a Viewlux (Perkin-Elmer). The ratio of the emissions at 665 nm and at 622 nm was taken as the measure for the amount of phosphorylated substrate.

[3] = biological target: T1, full-length human CSNK1A1; experiment: CSNK1A1 High ATP Assay (ADP-Glo, 1 mM ATP); conditions: Table 3, read-out: CSNK1A1 high ATP assay IC50 [mol/l] (median);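 note: 30 min kinase reaction at 22 °C with 100 µM peptide substrate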
Method: CSNK1A1-inhibitory activity of compounds of the present invention in presence of 1 mM adenosine-tri-phosphate (ATP) was quantified employing the CSNK1A1-high-ATP-assay as described in the following paragraphs. In essence, the enzyme activity is measured by quantification of the adenosine-di-phosphate (ADP), which is generated as a co-product of the enzyme reaction, via the “ADP-Glo™ Kinase Assay” kit from the company Promega. This detection system works as follows: In a first step the ATP not consumed in the kinase reaction is quantitatively converted to cAMP employing an adenylate cyclase (“ADP-Glo-reagent”), then the adenylate cyclase is stopped and the ADP generated in the kinase reaction converted to ATP which generates in a luciferase-based reaction a glow-luminescence signal (“Kinase Detection Reagent”).
as §1
For the assay 50 nl of a 100 fold concentrated solution of the test compound in DMSO was pipetted into a white low volume 384-well microtiter plate (Greiner Bio-One, Frickenhausen, Germany), 2 μL of a solution of CSNK1A1 in aqueous assay buffer [50 mM HEPES pH 7.5, 10% (v/v) glycerol, 10 mM MgCl2, 50 mM NaCl, 1 mM dithiothreitol, 0.01% (w/v) bovine serum albumin, 0.01% (v/v) Triton X-100] were added and the mixture was incubated for 15 min at 22° C. to allow pre-binding of the test compounds to the enzyme before the start of the kinase reaction. […] The concentration of CSNK1A1 was adjusted depending of the activity of the enzyme lot and was chosen appropriate to have the assay in the linear range, a typical concentration is about 0.4 ng/μL. The reaction was stopped by the addition of 2.5 μL of “ADP-Glo-reagent” (1:1.5 fold diluted with water) and the resulting mixture was incubated at 22° C. for 1 h to convert the ATP not consumed in the kinase reaction completely […]. Subsequently 2.5 μL of the “kinase detection reagent” (1.2 fold more concentrated than recommended by the producer) were added, the resulting mixture was incubated at 22° C. for 1 h and then the luminescence measured with a suitable measurement instrument (e.g. Viewlux™ from Perkin-Elmer). The amount of emitted light was taken as a measure for the amount of ADP generated and thereby for the activity of the CSNK1A1.

[4] = EGFR Wildtyp 2 mM ATP IC50 [mol/l] (median), Table 4

O=C(Nc1cc(-c2[nH]c3c(OCC(F)F)ccnc3c2-c2ccccn2)ccn1)C(CC(F)F)c1ccc(F)cc1 (single isomer, unassigned) [Example 77, (2R or S)—N-{4-[7-(2,2-difluoroethoxy)-3-(pyridin-2-yl)-1H-pyrrolo[3,2-b]pyridin-2-yl]pyridin-2-yl}-4,4-difluoro-2-(4-fluorophenyl)butanamide]
IC50 [1]: 7.2 nM
IC50 ([2]; read-out: EGFR Wildtyp 2 mM ATP IC50 [mol/l] (median), Table 4): > 20000 nM
IC50 [3]: 7.2 nM

O=C(Nc1cc(-c2[nH]c3c(OCC(F)F)ccnc3c2-c2ccccn2)ccn1)C(CC(F)F)c1ccc(F)cc1 (racemic) [Example 75, (2RS)—N-{4-[7-(2,2-difluoroethoxy)-3-(pyridin-2-yl)-1H-pyrrolo[3,2-b]pyridin-2-yl]pyridin-2-yl}-4,4-difluoro-2-(4-fluorophenyl)butanamide]
IC50 [1]: 4.37 nM
IC50 [2, 4]: > 20000 nM
IC50 [3]: 4.37 nM

O=C(Nc1cc(-c2[nH]c3c(OCC(F)F)ccnc3c2-c2ccccn2)ccn1)C(CC(F)F)c1ccc(F)cc1 (single isomer, unassigned) [Example 76, (2R or S)—N-{4-[7-(2,2-difluoroethoxy)-3-(pyridin-2-yl)-1H-pyrrolo[3,2-b]pyridin-2-yl]pyridin-2-yl}-4,4-difluoro-2-(4-fluorophenyl)butanamide]
IC50 [1]: 2.94 nM
IC50 [2, 4]: > 20000 nM
IC50 [3]: 2.94 nM
